Results as given in patent publication US10660928B2, “Pharmaceutical composition containing combination extracts of Moutan Root Bark, Angelica Dahurica Root, bupleurum root or fractions thereof for prevention and treatment of neurodegenerative disorder” (UNIVERSITY-INDUSTRY COOPERATION GROUP OF KYUNG HEE …, priority 2014, dated 2020).

Experiments:
NF-kB p65/ReIA = test: RT-PCR of NF-kB p65/ReIA mRNA, LPS-induced cells; format: cell-based, mouse; settings: BV2, treatment 1.0 μg/ml, LPS 100 ng/ml; negative control 100.00
Experimental: (§1) Particularly, BV2 cells were cultured by the same manner as described in Experimental Example <3-1>, and inflammatory response was induced. Then, RT-PCR was performed with the cells by the same manner as described in Experimental Example <1-4>, followed by quantitative analysis of the expression levels of iNOS, IL-6, and NF-kB p65/ReIA genes. The normal control was not treated with the extract of the invention or the active component thereof but treated with DMSO alone. The negative control was not treated with the extract or the active component but treated with 100 ng/ml of LPS alone to induce inflammatory response. Then, the expression of the inflammatory response marker gene was confirmed by the same manner as described above.

[1] = tested on: inducible nitric oxide synthase (iNOS); test: RT-PCR of iNOS mRNA, LPS-induced cells; format: cell-based, mouse; settings: BV2, treatment 1.0 μg/ml, LPS 100 ng/ml; negative control 100.00
Experimental: as §1

BV2 cells [2] = test: MTT assay, LPS-induced inflammatory response; format: cell-based, mouse; settings: BV2, treatment 1.0 μg/ml, inducer LPS 100 ng/ml
Experimental: Particularly, BV2 cells were cultured by the same manner as described in Experimental Example <3-1>. Then, the cultured cells were transferred into a serum free medium at the density of 1×10^5 cells/well. The cells were treated with the Bupleurum Root 90% ethanol extract prepared in Example <1-3>, saikosaponin A, saikosaponin B2, saikosaponin B4, or saikosaponin D at the concentration of 1.0 μg/ml, followed by culture for 4 hours. The cells were then treated with 100 ng/ml of lipopolysaccharide (LPS), followed by culture for 20 hours to induce inflammatory response. MTT assay was performed with the cells induced with inflammatory response by the same manner as described in Experimental Example <1-2>. The damage of mitochondria complex 1 was confirmed to see how the damage level was either increased or decreased, compared with the normal control group treated with DMSO without the extract or its active component. In the meantime, the negative control group was treated with 100 ng/ml of LPS alone to induce inflammatory response and was not treated with the extract or its active component. Then, MTT assay was performed by the same manner as described above.

interleukin-6, (IL-6) = test: RT-PCR of IL-6 mRNA, LPS-induced cells; format: cell-based, mouse; settings: BV2, treatment 1.0 μg/ml, LPS 100 ng/ml; negative control 100.00
Experimental: as §1

[3] = tested on: BV2, the mouse microglial cell line; test: Cell survival rate (calcein) in normal microglial cells, cytotoxicity; format: cell-based; settings: 1.0 μg/ml, 4 hours
Experimental: Particularly, BV2, the mouse microglial cell line, was inoculated in 1:1 DMEM (Dulbeco's Modified Eagle's Medium; Gibco, USA) supplemented with 10% FBS, followed by culture in a 37° C., 5% CO2/95% air (O2) incubator. Then, the cultured cells were transferred into a serum free medium at the density of 2.5×10^4 cells/well. The cells were treated with the Bupleurum Root 90% ethanol extract prepared in Example <1-3>, saikosaponin A, saikosaponin B2, saikosaponin B4, or saikosaponin D at the concentration of 1.0 μg/ml for 4 hours. The cells were collected and the cell survival rate was measured by using calcein. The survival rate of the cells that were increased or decreased compared with that of the normal control cells not-treated with the extract or its active component above and instead treated with DMSO was calculated and presented as percentage (%).

BV2 cells [4] = test: Griess method, nitric oxide in medium of LPS-induced cells; format: cell-based, mouse; settings: BV2, treatment 1.0 μg/ml, inducer LPS 100 ng/ml
Experimental: Particularly, BV2 cells were cultured by the same manner as described in Experimental Example <3-1>, and inflammatory response was induced. Then, 100 μl of the cell culture medium was obtained, to which 100 μl of Griess reagent comprising hydrochloric acid containing 5% sulfanilamide and 2% naphthylethylenediamine was added, followed by reaction in a dark room for 30 minutes. Upon completion of the reaction, OD540 was measured with an EISA microplate reader (Versamax, USA). The concentration of nitric oxide in the medium was calculated using the standard calibration curve of sodium nitrite. The normal control was not treated with the extract or the active component thereof but treated with DMSO. The negative control was treated with 100 ng/ml of LPS alone to induce inflammatory response but not treated with the extract or the active component. Then, the nitric oxide concentration reduction effect was investigated by the same manner as described above.
(§2) Particularly, BV2 cells were cultured by the same manner as described in Experimental Example <3-1>, and inflammatory response was induced. Then, 100 μl of the cell culture medium was obtained, to which 100 μl of Griess reagent comprising hydrochloric acid containing 5% sulfanilamide and 2% naphthylethylenediamine was added, followed by reaction in a dark room for 30 minutes. Upon completion of the reaction, OD540 was measured with an EISA microplate reader (Versamax, USA). The concentration of nitric oxide in the medium was calculated using the standard calibration curve of sodium nitrite. To measure the ROS concentration, the cells were treated with 1 μM DCF-DA and 0.05 μM bisbenzimide (Hoechst 33342), followed by staining at 37° C. for 1 hour. After the staining, the fluorescence intensity of DCF-DA was measured at 485 nm/535 nm, and the fluorescence intensity of bisbenzimide was measured at 335 nm/460 nm. Based on the ratio of DCF-DA/bisbenzimide, ROS was quantified. The amount of ROS, either increased or decreased, was compared with that of the normal control not treated with the extract but treated with DMSO, and the results were presented as %. The negative control was treated with 100 ng/ml of LPS alone to induce inflammatory response but not treated with the extract or the active component thereof. Then, the nitric oxide concentration reduction effect and the ROS concentration reduction effect were investigated by the same manner as described above.

BV2 cells [5] = test: DCF-DA intracellular ROS, LPS-induced cells; format: cell-based, mouse; settings: BV2, treatment 1.0 μg/ml, inducer LPS 100 ng/ml
Experimental: Particularly, BV2 cells were cultured by the same manner as described in Experimental Example <3-1>, and inflammatory response was induced. Then, the cells induced with inflammatory response were treated with 1 μM DCF-DA and 0.05 μM bisbenzimide (Hoechst 33342), followed by staining at 37° C. for 1 hour. After the staining, the fluorescence intensity of DCF-DA was measured at 485 nm/535 nm, and the fluorescence intensity of bisbenzimide was measured at 335 nm/460 nm. Based on the ratio of DCF-DA/bisbenzimide, ROS was quantified. The amount of ROS, either increased or decreased, was compared with that of the normal control not treated with the extract or the active component thereof but treated with DMSO, and the results were presented as %. The negative control was treated with 100 ng/ml of LPS alone to induce inflammatory response but not treated with the extract or the active component thereof. Then, the generation of ROS was investigated by the same manner as described above.
as §2

Row | Compound | p65/ReIA mRNA (% of control) (NF-kB p65/ReIA) | iNOS mRNA (% of control) [1] | MTT (% of control) (BV2 cells [2]) | IL-6 mRNA (% of control) (interleukin-6, (IL-6)) | Cell survival rate (% of control) [3] | NO (BV2 cells [4]) [µM] | DCF-DA-ROS (% of control) (BV2 cells [5])
1 | C[C@H]1O[C@@H](O[C@H]2CC[C@@]3(C)[C@@H](CC[C@]4(C)[C@@H]3C=CC3=C5CC(C)(C)CC[C@]5(CO)[C@H](O)C[C@]34C)[C@]2(C)CO)[C@H](O)[C@@H](O[C@@H]2O[C@H](CO)[C@@H](O)[C@H](O)[C@H]2O)[C@H]1O [saikosaponin B2, (3b,4a,16a)-16,23,28-Trihydroxyoleana-11,13(18)-dien-3-yl-6-deoxy-3-O-beta-D-glucopyranosyl-beta-D-galactopyranoside] | 50.18 ± 2.67 % of control | 18.11 ± 2.39 % of control | 88.85 ± 6.48 % of control | 29.67 ± 2.39 % of control | 102.74 ± 8.55 % of control | 19 ± 2.68 | 214.22 ± 1.87 % of control
2 | CO[C@@H]1C=C2[C@@H]3CC(C)(C)CC[C@]3(CO)[C@H](O)C[C@@]2(C)[C@]2(C)CC[C@H]3[C@](C)(CO)[C@@H](O[C@@H]4O[C@H](C)[C@H](O)[C@H](O[C@@H]5O[C@H](CO)[C@@H](O)[C@H](O)[C@H]5O)[C@H]4O)CC[C@]3(C)[C@@H]12 [saikosaponin B4, (3β,11α,16α)-16,23,28-Trihydroxy-11-methoxyolean-12-en-3-yl-6-deoxy-3-O-β-D-glucopyranosyl-β-D-galactopyranoside] | 53.70 ± 4.72 % of control | 26.06 ± 3.27 % of control | 87.12 ± 2.56 % of control | 28.53 ± 1.92 % of control | 97.99 ± 2.86 % of control | 17.2 ± 2.11 | 223.26 ± 2.86 % of control
3 | C[C@H]1O[C@@H](O[C@H]2CC[C@@]3(C)[C@@H](CC[C@]4(C)[C@@H]3C=C[C@]35OC[C@@]6(CCC(C)(C)C[C@H]63)[C@H](O)C[C@]54C)[C@]2(C)CO)[C@H](O)[C@@H](O[C@@H]2O[C@H](CO)[C@@H](O)[C@H](O)[C@H]2O)[C@H]1O [saikosaponin D, (3b,4a,16a)-13,28-Epoxy-16,23-dihydroxyolean-11-en-3-yl 6-deoxy-3-O-beta-D-glucopyranosyl beta-D-galactopyranoside] | 49.80 ± 3.54 % of control | 21.23 ± 1.99 % of control | 86.73 ± 1.25 % of control | 26.58 ± 1.75 % of control | 97.45 ± 3.99 % of control | 18.1 ± 2.93 | 218.61 ± 2.71 % of control
